Where two headings read alike, the source gives them in different places.
Assays:
Assay type in all cases: biochemical
[1] = biological target: FAK kinase (Homo sapiens, UniProt Q05397); test: FAK kinase activity inhibition assay, method A (HTRF) and method B (Lantha screen)
Description: The HTRF method was used to evaluate the inhibitory activity of the compounds against FAK kinase. […]. The reaction conditions were: FAK kinase at 0.1 ng/µL; ATP 10 µM; substrate concentration 1 µM. Compounds were serially diluted in DMSO and shaken on a shaker for 20 minutes. Prepare 2× kinase using 1× reaction buffer. Transfer 25 nL compound to a 384-well plate using Echo 655. Add 2.5 µL kinase per well. Seal the plate with sealing film, centrifuge at 1000 rpm for 60 seconds, and incubate at 25°C for 12 hours. Prepare 2× ATP/substrate mix using 1× enzyme reaction buffer and add 2.5 µL 2× ATP/substrate mix per well. Seal the plate with sealing film, centrifuge at 1000 rpm for 60 seconds, and incubate at 25°C for 50 minutes. Prepare 2×XL665 & antibody solution using HTRF detection buffer, and add 5 µL per well. Incubate at 25°C for 60 minutes. Read fluorescence at 620 nm (Cryptate) and 665 nm (XL665). Calculate the ratio per well (Ratio_665/620 nm). % Inhibition = 100% - [(Compound Ratio - Positive Control Ratio)/ (Negative Control Ratio - Positive Control Ratio)] × 100%. IC50 values (half-maximal inhibitory concentration) were calculated by nonlinear regression using GraphPad Prism 7.0. Y = Bottom + (Top - Bottom)/ (1 + 10^ ((LogIC50 - X) × Hill Slope)), where X is the log of compound concentration and Y is the % inhibition.
The Lantha screen assay was used to evaluate the FAK kinase inhibitory activity. Compounds were dissolved in 100% DMSO at 10 mM stock concentration. Prepare 1× kinase buffer (25 mM HEPES, pH 7.5, 0.01 mM Triton, 0.5 mM EGTA, 0.01% Brij-35). Dilute compounds in a gradient, and transfer 5 µL compound into the reaction plate. Prepare 2× kinase solution with 1× Kinase buffer. Add 5 µL kinase solution to compound and positive control wells, and 5 µL 1× Kinase buffer to negative control wells. Mix reaction plate by shaking. Prepare 4× ATP/Fluorescein-polyGT substrate mix with 1× Kinase buffer. Add 2.5 µL substrate solution to initiate the reaction. Shake and incubate at room temperature for 30 minutes. Prepare 2× detection reagent (2 nM antibody, 10 mM EDTA) and add 10 µL per well to stop the reaction. Briefly centrifuge, mix, and incubate for 60 minutes. Read fluorescence at 340 nm excitation and 520 nm/495 nm emission using EnVision. Collect data and calculate 520 nm/495 nm ratio. Calculate the inhibition percentage using the formula: % Inhibition = (Max - Sample Ratio)/(Max - Min) × 100, where min is the mean of negative control wells (no enzyme activity), and max is the mean of positive control wells (DMSO-inhibited conversion rate).Use XLFit Excel add-in version 5.4.0.8 to determine the IC50 values of each compound against the enzyme activity: Y = Bottom + (Top - Bottom)/(1 + (IC50/X)^HillSlope).

[2] = biological target: ALK kinase (Homo sapiens, UniProt Q9UM73); test: ALK kinase activity inhibition assay (HTRF)
ALK kinase, sequence (Q9UM73 19-1620): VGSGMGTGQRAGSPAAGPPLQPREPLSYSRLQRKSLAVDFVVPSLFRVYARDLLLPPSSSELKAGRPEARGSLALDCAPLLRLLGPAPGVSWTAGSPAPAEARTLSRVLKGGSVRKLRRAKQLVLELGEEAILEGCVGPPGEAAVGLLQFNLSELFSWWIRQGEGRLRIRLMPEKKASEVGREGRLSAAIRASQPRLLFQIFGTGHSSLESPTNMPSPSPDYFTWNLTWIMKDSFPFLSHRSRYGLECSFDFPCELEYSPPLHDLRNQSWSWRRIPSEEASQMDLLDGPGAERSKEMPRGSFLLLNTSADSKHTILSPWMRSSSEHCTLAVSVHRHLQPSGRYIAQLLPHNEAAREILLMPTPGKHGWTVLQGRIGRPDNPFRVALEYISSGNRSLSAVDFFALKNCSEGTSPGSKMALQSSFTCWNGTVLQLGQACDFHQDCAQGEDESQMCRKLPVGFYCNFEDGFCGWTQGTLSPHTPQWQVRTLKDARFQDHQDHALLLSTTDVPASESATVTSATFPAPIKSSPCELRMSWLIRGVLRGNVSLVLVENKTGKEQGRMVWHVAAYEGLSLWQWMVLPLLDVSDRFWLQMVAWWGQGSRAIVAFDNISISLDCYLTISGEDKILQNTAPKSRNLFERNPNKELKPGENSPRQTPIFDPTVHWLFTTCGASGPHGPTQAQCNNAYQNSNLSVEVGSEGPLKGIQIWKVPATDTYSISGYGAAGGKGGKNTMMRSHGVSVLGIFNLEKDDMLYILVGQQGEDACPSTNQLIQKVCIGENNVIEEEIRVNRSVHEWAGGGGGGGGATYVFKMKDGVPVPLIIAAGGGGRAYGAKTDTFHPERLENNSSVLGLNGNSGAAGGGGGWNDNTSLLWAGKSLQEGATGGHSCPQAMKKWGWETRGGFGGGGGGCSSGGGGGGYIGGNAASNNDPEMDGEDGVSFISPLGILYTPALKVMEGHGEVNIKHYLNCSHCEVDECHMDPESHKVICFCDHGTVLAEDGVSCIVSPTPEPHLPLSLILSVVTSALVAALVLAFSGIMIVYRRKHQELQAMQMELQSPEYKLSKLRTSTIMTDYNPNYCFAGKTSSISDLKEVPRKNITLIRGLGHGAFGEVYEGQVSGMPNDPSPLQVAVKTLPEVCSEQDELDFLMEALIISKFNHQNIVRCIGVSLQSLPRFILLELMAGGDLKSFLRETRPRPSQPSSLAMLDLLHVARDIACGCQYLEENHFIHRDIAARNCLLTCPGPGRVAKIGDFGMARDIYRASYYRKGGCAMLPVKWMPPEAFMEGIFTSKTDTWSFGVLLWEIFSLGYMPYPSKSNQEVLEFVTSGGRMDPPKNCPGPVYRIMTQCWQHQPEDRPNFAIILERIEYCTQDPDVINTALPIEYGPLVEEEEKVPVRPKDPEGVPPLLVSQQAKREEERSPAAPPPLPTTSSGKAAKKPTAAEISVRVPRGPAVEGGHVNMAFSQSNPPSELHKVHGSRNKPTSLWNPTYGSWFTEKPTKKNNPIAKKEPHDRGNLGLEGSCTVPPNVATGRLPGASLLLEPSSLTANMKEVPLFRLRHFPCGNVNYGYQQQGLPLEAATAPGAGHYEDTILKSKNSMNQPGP
Description: Measure compound inhibitory activity against ALK kinase using HTRF Assay.1× kinase reaction buffer was prepared. The kinase reaction conditions were as follows: kinase concentration at 0.04 ng/µL; ATP working concentration in substrate mixture solution at 2 µM; final substrate concentration at 1 µM. Compounds were serially diluted in DMSO and shaken on an orbital shaker for 20 minutes. 2× kinase solution was prepared using 1× kinase reaction buffer. 1 µL of compound solution was transferred to a 384-well plate. 2 µL of kinase solution was added to each well of the reaction plate. The plate was sealed with adhesive film, centrifuged at 1000 rpm for 60 seconds, and incubated at 25°C for 10 minutes. 2.5× ATP/substrate mixture was prepared using 1× kinase reaction buffer. 2 µL of 2.5× ATP/substrate mixture was added to the reaction plate. The plate was sealed with adhesive film, centrifuged at 1000 rpm for 60 seconds, and incubated at 25°C for 50 minutes. 4× Sa-XL 665 solution was prepared using HTRF detection buffer. 5 µL of Sa-XL 665 solution and 5 µL of TK-antibody-Cryptate solution were added to each well. The plate was centrifuged at 1000 rpm for 60 seconds and incubated at 25°C for 60 minutes. Fluorescence signals were measured at 615 nm (Cryptate) and 665 nm (XL665) using a BMG microplate reader. The ratio for each well was calculated as: Ratio_665/615nm. The inhibition percentage was calculated as follows: % inhibition = 100% - [(Compound Ratio - Positive Control Ratio)/(Negative Control Ratio - Positive Control Ratio)] × 100%. The IC50 values (half-maximal inhibitory concentration) of compounds were determined by fitting the data to the following nonlinear regression equation using GraphPad Prism 7.0 software: Y = Bottom + (Top - Bottom)/(1 + 10^(([…] - X) × Hill Slope)) where: X = log(compound concentration), Y = % inhibition.

[3] = biological target: CDK7/CycH/MAT1 kinase (Homo sapiens, UniProt P50613); test: CDK7 kinase activity inhibition assay (ADP-Glo)
CDK7/CycH/MAT1 kinase, sequence (P50613 whole entry, species assumed): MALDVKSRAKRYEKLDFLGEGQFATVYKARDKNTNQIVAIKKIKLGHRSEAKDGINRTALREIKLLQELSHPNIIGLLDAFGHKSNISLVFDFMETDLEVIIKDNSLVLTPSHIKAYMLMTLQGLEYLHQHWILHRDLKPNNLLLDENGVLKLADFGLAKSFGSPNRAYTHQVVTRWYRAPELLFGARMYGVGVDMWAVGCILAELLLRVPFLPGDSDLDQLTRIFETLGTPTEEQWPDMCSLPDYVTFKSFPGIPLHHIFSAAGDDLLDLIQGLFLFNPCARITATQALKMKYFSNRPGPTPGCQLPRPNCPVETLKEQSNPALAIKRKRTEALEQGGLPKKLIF
CDK7/CycH/MAT1 kinase, sequence (P51946 whole entry partner, species assumed): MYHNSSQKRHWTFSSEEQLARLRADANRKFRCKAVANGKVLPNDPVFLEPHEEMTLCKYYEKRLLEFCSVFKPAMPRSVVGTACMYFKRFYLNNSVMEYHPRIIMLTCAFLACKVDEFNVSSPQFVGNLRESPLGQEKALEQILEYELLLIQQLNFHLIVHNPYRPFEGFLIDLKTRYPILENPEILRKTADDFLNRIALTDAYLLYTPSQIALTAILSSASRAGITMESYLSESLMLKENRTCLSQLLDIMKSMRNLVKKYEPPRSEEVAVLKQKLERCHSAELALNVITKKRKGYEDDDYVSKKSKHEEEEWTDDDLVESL
CDK7/CycH/MAT1 kinase, sequence (P51948 whole entry partner, species assumed): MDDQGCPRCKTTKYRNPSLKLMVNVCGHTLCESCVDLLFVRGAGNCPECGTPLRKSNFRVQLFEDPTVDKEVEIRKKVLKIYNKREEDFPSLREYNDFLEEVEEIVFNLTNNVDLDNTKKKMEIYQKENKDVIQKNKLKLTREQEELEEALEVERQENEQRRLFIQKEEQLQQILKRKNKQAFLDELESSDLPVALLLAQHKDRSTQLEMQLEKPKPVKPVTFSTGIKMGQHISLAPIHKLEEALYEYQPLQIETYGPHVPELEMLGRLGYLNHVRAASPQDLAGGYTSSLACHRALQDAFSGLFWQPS
Description: Measure compound inhibitory activity against CDK7/CycH/MAT1 kinase using ADP-Glo assay. 1× kinase reaction buffer was prepared (working concentrations: HEPES 50 mM, MgCl2 10 mM, Brij35 0.01%, DTT 2 mM). The kinase reaction conditions were as follows: Kinase concentration: 3.5 ng/µL; Substrate mixture working concentrations: ATP 30 µM, CDK substrate 0.1 mg/ mL. Compounds were serially diluted in DMSO and shaken on an orbital shaker for 20 minutes. 2× kinase solution was prepared using 1× kinase buffer. 1 µL of compound solution was transferred to a 384-well plate. 2 µL of kinase solution was added to each well of the reaction plate. The plate was sealed with adhesive film, centrifuged at 1000 rpm for 60 seconds, and incubated at 25°C for 10 minutes. 4× ATP&substrate mixture was prepared using 1× kinase buffer. 1 µL of 4× ATP&substrate mixture was added to the reaction plate. The plate was sealed with adhesive film, centrifuged at 1000 rpm for 60 seconds, and incubated at 25°C for 60 minutes. 4 µL of ADP-Glo reagent was transferred to the 384-well reaction plate, centrifuged at 1000 rpm for 1 minute, and incubated at 25°C for 40 minutes. 8 µL of Detection solution was transferred to the 384-well reaction plate, centrifuged at 1000 rpm for 1 minute, and incubated at 25°C for 40 minutes. Relative luminescence units (RLU) were measured using a BMG microplate reader, with signal intensity representing kinase activity level. The inhibition percentage was calculated as follows: % inhibition = 100% - [(Compound RLU - Positive Control RLU)/(Negative Control RLU - Positive Control RLU)] × 100%. The IC50 values (half-maximal inhibitory concentration) of compounds were determined by fitting the data to the following nonlinear regression equation using GraphPad Prism 7.0 software: Y = Bottom + (Top - Bottom)/(1 + 10^((LogIC50 - X) × Hill Slope)), where: X = log(compound concentration), Y = % inhibition.

[4] = Table 4, ATP 2 µM, read-out: ALK (IC50)
[5] = Table 4, ATP 30 µM, read-out: CDK7 (IC50)

FAK kinase, sequence (Q05397 whole entry): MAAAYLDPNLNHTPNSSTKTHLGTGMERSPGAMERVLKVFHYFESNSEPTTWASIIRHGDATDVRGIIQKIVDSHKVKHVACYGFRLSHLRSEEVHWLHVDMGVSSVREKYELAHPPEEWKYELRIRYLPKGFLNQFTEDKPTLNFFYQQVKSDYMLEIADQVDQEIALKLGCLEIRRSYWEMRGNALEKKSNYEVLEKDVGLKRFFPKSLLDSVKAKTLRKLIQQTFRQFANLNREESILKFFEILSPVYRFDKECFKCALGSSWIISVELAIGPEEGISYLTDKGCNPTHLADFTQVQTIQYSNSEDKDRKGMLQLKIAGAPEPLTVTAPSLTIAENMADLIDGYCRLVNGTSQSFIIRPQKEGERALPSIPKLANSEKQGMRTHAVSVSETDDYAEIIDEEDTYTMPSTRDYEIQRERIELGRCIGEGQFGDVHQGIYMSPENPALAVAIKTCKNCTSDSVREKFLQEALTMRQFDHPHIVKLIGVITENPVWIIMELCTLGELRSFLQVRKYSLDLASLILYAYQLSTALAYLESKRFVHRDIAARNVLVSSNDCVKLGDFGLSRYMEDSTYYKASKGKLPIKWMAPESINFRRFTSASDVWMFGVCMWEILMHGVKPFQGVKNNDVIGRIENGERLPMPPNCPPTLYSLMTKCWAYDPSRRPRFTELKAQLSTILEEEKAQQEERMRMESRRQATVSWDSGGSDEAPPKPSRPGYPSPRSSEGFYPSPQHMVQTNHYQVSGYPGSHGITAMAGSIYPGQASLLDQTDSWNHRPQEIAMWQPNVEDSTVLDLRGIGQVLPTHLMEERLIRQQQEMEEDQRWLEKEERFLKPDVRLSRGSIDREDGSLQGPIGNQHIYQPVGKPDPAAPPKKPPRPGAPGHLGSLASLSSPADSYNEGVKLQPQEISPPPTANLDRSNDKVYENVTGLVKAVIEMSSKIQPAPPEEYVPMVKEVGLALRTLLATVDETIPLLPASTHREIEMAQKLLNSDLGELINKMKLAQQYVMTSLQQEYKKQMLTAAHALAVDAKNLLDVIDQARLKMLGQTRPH

SMILES | IC50 [1] | IC50 [2] | IC50 [3] | IC50 [2, 4] | IC50 [3, 5]
COc1cc2c(cc1Nc1ncc(Cl)c(Nc3ccccc3S(=O)(=O)C(C)C)n1)OC[C@@H]1CN(C3CCOCC3)CCN21 [Compound C1S] | < 1 nM | – | – | – | –
COc1cc2c(cc1Nc1ncc(Cl)c(Nc3ccccc3S(=O)(=O)C(C)C)n1)OC[C@@H]1CN(C3CCN(C)CC3)CCN21 [Compound C2S] | < 1 nM | < 0.05 nM | – | – | –
CNC(=O)c1ccccc1Nc1cc(Nc2cc3c(cc2OC)N2CCN(C4CCN(C)CC4)C[C@@H]2CO3)ncc1C(F)(F)F [Compound D2R] | < 1 nM | < 10 nM | < 15 nM | – | –
CNC(=O)c1ccccc1Nc1cc(Nc2cc3c(cc2OC)N2CCN(C4CCN(C)CC4)C[C@H]2CO3)ncc1C(F)(F)F [Compound D2S] | < 0.5 nM | – | – | < 15 nM | < 15 nM
CNC(=O)c1ccccc1Nc1cc(Nc2cc3c(cc2OC)N2CCN(C4CN(C)C4)C[C@H]2CO3)ncc1C(F)(F)F [Compound D4S] | < 1 nM | – | – | < 15 nM | < 10 nM

Reference: patent EP4653444A1, “FUSED TRICYCLIC COMPOUND AS KINASE INHIBITOR” (Hangzhou Innogate Pharma Co., Ltd., priority 2023, dated 2024)
